Measurements published in US7838672B2, “Use of fused ring-1,2,4-benzotriazine derivatives as herbicides or plant growth regulators for the control of undesired plants or vegetation, compounds and compositions thereof, and processes for their preparation” (Bayer CropScience GmbH, priority 2003, dated 2010).

Experiments:
[1] = system: Galium aparine, Abutilon theophrasti, Alopecurus myosuroides, Avena fatua, Ipomoea purpurea, Echinchloa crus-galli, Solanum nigrum and Cyperus iria; assay: Pre-emergence effect on weeds (greenhouse pot test, applied to the covering soil); type: in vivo; conditions: application rate of 3 kg or less of active ingredient per hectare, assessed three to four weeks after application vs untreated control
Protocol: Seeds of monocotyledonous and dicotyledonous weeds and/or crops were placed in sandy loam in wood-fibre-pots and covered with soil. The compounds formulated as wettable powders or emulsifiable concentrates were dissolved and diluted with water containing adjuvant and then applied to the surface of the covering soil at different dose rates at an application volume of 600 or 800 litres water per ha. After the treatment, the pots were placed in the greenhouse and kept under good growth conditions for the plants. The herbicidal effect was assessed visually as a percentage figure in comparison with the untreated control three to four weeks after application. 100% Efficacy refers to the complete damage of the assessed plants, 0% efficacy refers to the appearance of the untreated control.

[2] = system: Galium aparine, Abutilon theophrasti, Alopecurus myosuroides, Avena fatua, Ipomoea purpurea, Echinchloa crus-galli, Solanum nigrum and Cyperus iria; assay: Post-emergence effect on weeds (greenhouse pot test, applied over the top of plants at one-leaf-stage); type: in vivo; conditions: application rate of 3 kg or less of active ingredient per hectare, treated at one-leaf-stage, assessed three to four weeks after application vs untreated control
Protocol: Seeds of monocotyledonous and dicotyledonous weeds and/or crops were placed in sandy loam in wood-fibre-pots covered with soil and grown under good greenhouse conditions. The plants were treated at the one-leaf-stage two to three weeks after sowing. The compounds, formulated as wettable powders or emulsifiable concentrates were dissolved and diluted with water containing adjuvant and then applied over the top of the plants at different dose rates at an application volume of 600 or 800 litres water per ha. After the treatment, the pots were placed in the greenhouse and kept under good growth conditions for the plants. The herbicidal effect was assessed visually as a percentage figure in comparison with the untreated control three to four weeks after application

| melting point | SMILES | pre-emergence control of harmful weed species (herbicidal effect assessed visually) [1] | post-emergence control of the tested weed species (herbicidal effect assessed visually) [2] |
| --- | --- | --- | --- |
| – | [O-][n+]1nc2nncn2c2ccc(Br)cc21 [Compound 5, 7-bromo[1,2,4]triazolo[3,4-c][1,2,4]benzotriazine-5-oxide] | very good pre-emergence control | very good post-emergence control |
| 259 to 261 °C | c1ccc2c(c1)nnc1nncn12 [Compound 3, [1,2,4]triazolo[3,4-c][1,2,4]benzotriazine] | very good pre-emergence control | very good post-emergence control |
| – | c1ccc2c(c1)NNc1nncn1-2 [Compound 6, 4,5-dihydro[[1,2,4]triazolo[3,4-c][1,2,4]benzotriazine] | very good pre-emergence control | very good post-emergence control |
